This note sets out measurements from US5298502A, “Method and composition for photodynamic treatment and detection of tumors” (priority 1991, dated 1994).

Each structure is given as a SMILES string.

For test [1], the system named is dark-bleached Chlamydomonas reinhardi mutant y-1. Description: Light-Induced Greening Inhibition Test. Format: cell-based. Conditions: compounds ionized in water, operative ion negatively charged. As for the experimental part:
Another test of the capacity of a material for disrupting the plasmalemma of plant material is the Light-Induced Greening Inhibition Test described more particularly in Appendix B below.
Stock Cultures of y-1 cells are maintained axenically in liquid culture on Medium A or M, preferably on Medium M, in a 14/10 hour light/dark cycle at 25° C. in Erlenmeyer flasks which are stoppered with polyurethane plugs. The stock cultures are incubated without supplemental aeration on rotary shakers at 125 rpm. The light intensity at the culture level is 120 μE m^-2 sec^-1 (PAR). Under these conditions the cultures are in a semi-synchronous mode of growth until they reach a stationary phase of 2-4×10^6 cells/mL.
Cells from the stationary phase of stock cultures grown in the presence of light (7.5 mL) are transferred to 750 mL of Medium A in an Erlenmeyer flask. […]
An aqueous, 10% sodium dodecyl sulfate solution (250 μL) and methanol (1 mL) is added to each test well and is mixed thoroughly. […] The supernatants are removed and analyzed in a Beckman Model 35 spectrophotometer between 350 nm and 500 nm for the presence of protophorphrin IX, at 668 nm which is the absorption peak of chlorophyll in this solvent system, and at 720 nm to use as a turbidity background reading.
For each well a greenness value is obtained by subtracting the 720 nm reading from the 668 nm reading. […]

Test [2] concerns DBA/2 Ha mice with SMT-F subcutaneous tumors. Description: Proto IX content of tissues of tumor-bearing mice fed the agent (Example 6). Format: in vivo. Summed up:
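DBA/2 Ha mice bearing subcutaneous SMT-F tumors fed mash with 2000 ppm agent on Days 2-10, controls untreated; sacrifice Day 10 (one agent Day 7). Kidney, intestine, adrenal, liver and tumor extracted in acetone-0.1 N NH4OH (9:1); Proto IX by fluorescence (ex 400/em 630 nm) as CPS per g tissue.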

[3] abbreviates: 2000 ppm in feed Days 2-10, sacrificed Day 10 (6j Day 7).

As for `Cc1nn(-c2cc(NS(C)(=O)=O)c(Cl)cc2Cl)c(=O)n1C(F)F` [Agent 6c], the “response in light-greening inhibition test” value in test [1] is “do not respond well in this test”. Besides, in test [2] (2000 ppm in feed), the “concentration of Proto IX in tissue, Adrenal” value was 126 ug of Proto IX per gram of tis; the “concentration of Proto IX in tissue, Intestine” value is 91 ug of Proto IX per gram of tis; the “concentration of Proto IX in tissue, Kidneys” value is given as 148 ug of Proto IX per gram of tis; the “concentration of Proto IX in tissue, Liver” value was 25 ug of Proto IX per gram of tis. For the same molecule, the “concentration of Proto IX in tissue, Tumor” value in test [2] (2000 ppm in feed) is given as 131 ug of Proto IX per gram of tis. For the same molecule, in test [2] (setting [3]), the “Proto IX Mean Cps per gram, Adrenal” value is 13790 Cps per gram × 10^3; the “Proto IX Mean Cps per gram, Kidneys” value came out at 16186 Cps per gram × 10^3; the “Proto IX Mean Cps per gram, Liver” value amounted to 2739 Cps per gram × 10^3; the “Proto IX Mean Cps per gram, Tumor” value came out at 14336 Cps per gram × 10^3. Moreover, in test [2] (setting [3]), the “Weight of Tumor as excised” value is given as 157 mg. Besides, the “Proto IX Mean Cps per gram, Intestine” value in test [2] (2000 ppm in feed, samples diluted with 3 parts basic acetone to one part sample) was 9937 Cps per gram × 10^3.
